According to ChEMBL document CHEMBL1201862, “PubChem BioAssay data set” (2004):
The source made the active and inactive calls.

Columns and labels:
Aminopeptidase N = biological target: T1, Aminopeptidase N (Plasmodium falciparum FcB1/Columbia, UniProt O96935); test: malaria alanyl aminopeptidase activity blockers – biochemical, fluorogenic H-Leu-NHMec substrate, 1536-well (AID 1445); design: species or system Plasmodium falciparum 3D7, 3D7
T1 sequence (O96935 whole entry): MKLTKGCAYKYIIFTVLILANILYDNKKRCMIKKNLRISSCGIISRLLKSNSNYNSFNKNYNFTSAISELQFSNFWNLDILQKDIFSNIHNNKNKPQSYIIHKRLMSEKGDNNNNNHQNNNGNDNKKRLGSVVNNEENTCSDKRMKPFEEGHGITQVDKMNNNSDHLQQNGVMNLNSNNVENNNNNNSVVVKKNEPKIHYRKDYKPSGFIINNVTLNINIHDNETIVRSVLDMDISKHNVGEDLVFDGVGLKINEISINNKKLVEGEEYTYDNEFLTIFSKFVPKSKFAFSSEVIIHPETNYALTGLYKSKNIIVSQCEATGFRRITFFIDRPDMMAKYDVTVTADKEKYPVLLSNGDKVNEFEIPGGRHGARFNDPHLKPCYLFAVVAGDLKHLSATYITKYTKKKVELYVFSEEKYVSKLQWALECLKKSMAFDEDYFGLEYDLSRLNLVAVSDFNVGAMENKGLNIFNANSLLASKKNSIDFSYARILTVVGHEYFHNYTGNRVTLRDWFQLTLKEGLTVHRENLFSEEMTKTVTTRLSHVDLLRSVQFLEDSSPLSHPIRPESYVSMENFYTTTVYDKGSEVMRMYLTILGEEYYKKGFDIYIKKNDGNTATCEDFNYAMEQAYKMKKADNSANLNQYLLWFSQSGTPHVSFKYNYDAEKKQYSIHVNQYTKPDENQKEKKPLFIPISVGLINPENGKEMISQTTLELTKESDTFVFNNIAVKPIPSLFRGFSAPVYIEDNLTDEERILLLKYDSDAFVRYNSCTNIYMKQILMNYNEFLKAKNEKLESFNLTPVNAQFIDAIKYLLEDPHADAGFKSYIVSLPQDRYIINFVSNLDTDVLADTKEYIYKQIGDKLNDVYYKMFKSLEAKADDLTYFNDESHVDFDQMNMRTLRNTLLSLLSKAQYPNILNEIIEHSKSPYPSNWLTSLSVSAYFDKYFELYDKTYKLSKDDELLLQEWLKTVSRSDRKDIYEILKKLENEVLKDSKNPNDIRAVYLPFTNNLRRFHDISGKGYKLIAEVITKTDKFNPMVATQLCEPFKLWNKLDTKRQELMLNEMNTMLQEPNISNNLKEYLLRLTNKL

[1] = THP-1 cell cytotoxicity, dose response, cytotoxicity control for non-replicating M. tuberculosis project (AID 489025); format: functional
[2] = Vero E6 cell cytotoxicity, dose response, cytotoxicity control for non-replicating M. tuberculosis project, secondary assay (AID 492998); format: functional, VeroE6; conditions: Vero C1008
Protein RecA = biological target: T2, Protein RecA (Mycobacterium tuberculosis, UniProt P9WHJ3); test: Fluorescence Cell-Free Homogeneous Dose Retest to Identify Inhibitors of RecA-Intein Splicing Activity. [Related pubchem assays (depositor defined):AID2097, AID2223, AID489010, AID492950]; format: functional
T2 sequence (P9WHJ3 whole entry): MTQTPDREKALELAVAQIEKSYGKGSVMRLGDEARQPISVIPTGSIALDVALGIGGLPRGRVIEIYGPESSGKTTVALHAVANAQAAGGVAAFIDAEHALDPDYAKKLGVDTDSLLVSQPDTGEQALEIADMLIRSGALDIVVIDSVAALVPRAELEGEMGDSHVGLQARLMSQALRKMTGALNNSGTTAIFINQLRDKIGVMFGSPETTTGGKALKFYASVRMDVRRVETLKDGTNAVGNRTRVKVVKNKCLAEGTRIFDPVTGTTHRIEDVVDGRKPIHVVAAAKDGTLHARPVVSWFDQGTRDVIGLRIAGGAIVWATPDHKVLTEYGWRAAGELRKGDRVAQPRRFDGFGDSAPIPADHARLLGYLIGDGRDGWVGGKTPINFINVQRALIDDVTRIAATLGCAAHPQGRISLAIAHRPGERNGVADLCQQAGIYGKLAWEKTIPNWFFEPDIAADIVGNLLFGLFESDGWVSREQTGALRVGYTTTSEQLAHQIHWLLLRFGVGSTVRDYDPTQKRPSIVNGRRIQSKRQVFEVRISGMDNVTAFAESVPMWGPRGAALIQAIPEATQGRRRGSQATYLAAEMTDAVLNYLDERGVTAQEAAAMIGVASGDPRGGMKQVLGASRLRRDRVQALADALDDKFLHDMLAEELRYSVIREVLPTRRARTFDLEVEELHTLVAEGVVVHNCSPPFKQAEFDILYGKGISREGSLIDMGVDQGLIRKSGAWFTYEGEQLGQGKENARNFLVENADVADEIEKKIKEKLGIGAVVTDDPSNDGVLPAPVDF

[3] = biological target: Peroxisome proliferator-activated receptor gamma/Nuclear receptor coactivator 1 (Homo sapiens, UniProt P37231); test: (§1) TR-FRET dose response biochemical High Throughput Screening assay for agonists of the steroid receptor coactivator 1 (SRC-1) recruitment by the peroxisome proliferator-activated receptor gamma (PPAR gamma): non-selective agonists. [Related pubchem assays (depositor defined):AID1300, AID1808, AID504735, AID631]; format: protein assay
[4] = biological target: Peroxisome proliferator-activated receptor gamma/Nuclear receptor coactivator 3 (Homo sapiens, UniProt P37231); test: as §1, with “3 (SRC-3)” for “1 (SRC-1)”, “assays: 1301 (Confirmation screen.), 1048 (Primary screen.)]” for “assays (depositor defined):AID1300, AID1808, AID504735, AID631]”; format: functional
[5] = biological target: Peroxisome proliferator-activated receptor gamma/Nuclear receptor coactivator 2 (Homo sapiens, UniProt P37231); test: TR-FRET dose response biochemical High Throughput Screening assay for agonists of the steroid receptor coactivator 2 (SRC-2) recruitment by the peroxisome proliferator-activated receptor gamma (PPAR gamma): non-selective agonists. [Related pubchem assays: 1297, 1032 ]; format: functional
Peroxisome proliferator-activated receptor gamma/Nuclear receptor coactivator 2, sequence (P37231 whole entry): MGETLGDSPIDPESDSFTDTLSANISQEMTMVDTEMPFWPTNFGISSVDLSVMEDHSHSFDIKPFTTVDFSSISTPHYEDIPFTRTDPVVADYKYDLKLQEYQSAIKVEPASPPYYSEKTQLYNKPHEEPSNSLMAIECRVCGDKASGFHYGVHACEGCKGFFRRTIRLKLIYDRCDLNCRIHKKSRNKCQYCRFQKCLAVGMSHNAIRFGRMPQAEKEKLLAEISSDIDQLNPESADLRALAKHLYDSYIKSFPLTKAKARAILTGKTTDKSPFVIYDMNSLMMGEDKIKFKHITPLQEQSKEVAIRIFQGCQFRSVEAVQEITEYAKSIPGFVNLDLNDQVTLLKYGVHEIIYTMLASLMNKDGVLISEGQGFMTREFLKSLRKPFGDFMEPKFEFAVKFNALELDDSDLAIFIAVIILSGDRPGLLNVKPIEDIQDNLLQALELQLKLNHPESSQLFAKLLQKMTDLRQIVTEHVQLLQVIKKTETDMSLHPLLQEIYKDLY
Peroxisome proliferator-activated receptor gamma/Nuclear receptor coactivator 2, sequence (Q15596 whole entry, further chain): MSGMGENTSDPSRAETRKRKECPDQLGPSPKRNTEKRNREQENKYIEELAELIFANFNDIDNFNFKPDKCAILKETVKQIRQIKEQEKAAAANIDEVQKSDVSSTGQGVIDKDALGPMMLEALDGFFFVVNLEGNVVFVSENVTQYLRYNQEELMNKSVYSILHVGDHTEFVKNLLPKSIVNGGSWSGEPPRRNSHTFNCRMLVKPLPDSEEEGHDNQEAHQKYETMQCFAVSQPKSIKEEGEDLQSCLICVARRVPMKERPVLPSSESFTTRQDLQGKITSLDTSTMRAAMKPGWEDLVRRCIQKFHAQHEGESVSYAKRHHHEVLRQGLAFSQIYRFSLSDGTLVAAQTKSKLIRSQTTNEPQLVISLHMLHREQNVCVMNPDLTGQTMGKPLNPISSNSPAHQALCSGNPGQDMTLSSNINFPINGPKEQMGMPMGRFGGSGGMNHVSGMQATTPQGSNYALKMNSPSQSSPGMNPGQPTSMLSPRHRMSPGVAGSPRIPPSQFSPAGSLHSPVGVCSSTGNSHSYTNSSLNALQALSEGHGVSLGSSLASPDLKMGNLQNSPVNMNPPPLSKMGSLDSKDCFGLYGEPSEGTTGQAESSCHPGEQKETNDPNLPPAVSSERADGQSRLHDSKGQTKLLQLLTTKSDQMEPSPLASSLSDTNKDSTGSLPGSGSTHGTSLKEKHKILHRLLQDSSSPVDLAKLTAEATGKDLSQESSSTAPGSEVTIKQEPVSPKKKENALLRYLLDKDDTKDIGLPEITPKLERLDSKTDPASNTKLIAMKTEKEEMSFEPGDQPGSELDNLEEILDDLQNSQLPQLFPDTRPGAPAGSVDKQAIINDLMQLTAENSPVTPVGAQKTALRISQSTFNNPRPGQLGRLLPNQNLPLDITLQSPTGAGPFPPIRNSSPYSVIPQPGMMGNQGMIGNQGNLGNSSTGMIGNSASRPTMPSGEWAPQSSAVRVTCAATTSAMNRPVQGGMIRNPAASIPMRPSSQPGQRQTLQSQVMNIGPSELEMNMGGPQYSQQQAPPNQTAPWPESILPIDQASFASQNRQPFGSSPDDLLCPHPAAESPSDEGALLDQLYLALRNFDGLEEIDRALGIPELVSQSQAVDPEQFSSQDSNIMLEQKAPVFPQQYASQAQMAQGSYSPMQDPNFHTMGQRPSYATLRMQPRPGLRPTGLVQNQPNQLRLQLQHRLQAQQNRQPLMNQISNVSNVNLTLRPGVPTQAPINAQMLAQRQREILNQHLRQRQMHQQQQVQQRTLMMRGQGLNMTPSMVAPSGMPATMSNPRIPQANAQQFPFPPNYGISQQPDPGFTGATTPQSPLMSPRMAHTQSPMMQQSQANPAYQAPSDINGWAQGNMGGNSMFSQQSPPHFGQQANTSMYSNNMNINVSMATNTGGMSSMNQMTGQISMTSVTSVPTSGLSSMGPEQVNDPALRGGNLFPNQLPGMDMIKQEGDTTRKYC

Prothrombin = Prothrombin (Homo sapiens, UniProt P00734); test: Thrombin 1536 HTS Dose Response Confirmation. [Related pubchem assays: 1046 (Thrombin 1536 HTS; hits were confirmed in this assay)]; format: functional
[6] = biological target: T3, Short transient receptor potential channel 4 (Mus musculus, UniProt Q9QUQ5); test: calcium entry via TRPC4 opening agents – cell-based, HEK293 TRPC4/mu-opioid, Fluo-4 calcium, dose response (AID 434937); format: functional
T3 sequence (Q9QUQ5 whole entry): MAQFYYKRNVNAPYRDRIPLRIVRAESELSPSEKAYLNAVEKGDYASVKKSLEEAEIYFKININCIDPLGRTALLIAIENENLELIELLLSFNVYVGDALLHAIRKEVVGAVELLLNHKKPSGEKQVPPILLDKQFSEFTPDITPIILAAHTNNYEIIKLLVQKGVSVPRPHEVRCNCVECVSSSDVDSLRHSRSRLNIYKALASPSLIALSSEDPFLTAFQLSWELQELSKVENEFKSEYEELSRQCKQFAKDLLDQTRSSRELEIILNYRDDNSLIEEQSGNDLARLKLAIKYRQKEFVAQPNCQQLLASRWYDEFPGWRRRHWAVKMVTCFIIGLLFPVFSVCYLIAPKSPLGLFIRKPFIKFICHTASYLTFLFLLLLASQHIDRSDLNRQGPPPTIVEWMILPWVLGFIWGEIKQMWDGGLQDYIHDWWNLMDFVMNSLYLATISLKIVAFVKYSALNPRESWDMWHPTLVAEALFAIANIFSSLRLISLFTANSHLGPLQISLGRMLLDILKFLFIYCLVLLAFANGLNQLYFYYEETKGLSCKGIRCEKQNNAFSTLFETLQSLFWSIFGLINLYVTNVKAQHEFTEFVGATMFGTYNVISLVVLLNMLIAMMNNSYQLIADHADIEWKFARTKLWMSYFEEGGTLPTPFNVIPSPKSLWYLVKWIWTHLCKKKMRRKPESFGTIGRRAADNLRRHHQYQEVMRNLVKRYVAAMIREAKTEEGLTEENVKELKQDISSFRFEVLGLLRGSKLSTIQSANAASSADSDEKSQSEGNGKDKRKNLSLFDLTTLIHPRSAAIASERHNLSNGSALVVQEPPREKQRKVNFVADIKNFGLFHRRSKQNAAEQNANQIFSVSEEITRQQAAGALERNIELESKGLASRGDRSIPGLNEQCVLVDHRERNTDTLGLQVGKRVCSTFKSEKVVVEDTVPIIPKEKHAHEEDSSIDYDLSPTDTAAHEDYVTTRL

[7] = blockers of HIV-1 envelope-mediated cell-cell fusion – cherry-pick, dose response (AID 652057); format: functional, cell-based
[8] = blockers of HIV-1 ZM109 envelope-driven cell-cell fusion – HeLa effector, CEM target cells, luciferase, cherry-pick, dose response (AID 652058); format: functional, cell-based;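 further: luciferase signal from HIV-1 Env mediated cell-cell fusion of effector and target cells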
[9] = off-target signal loss in HeLa-CEM21 co-culture – HeLa F-luc CTL cells, cherry-picked, counter-screen for HIV-1 Env fusion inhibitor project, dose response (AID 652040); format: functional, cell-based;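 further: potency for signal decrease marking cytotoxic or nonspecific inhibition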
[10] = HIV-1 AD8 envelope cell-cell fusion blockers – cherry-pick, dose response (AID 652062); format: functional, cell-based;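 further: luciferase signal from cell-cell fusion driven by HIV-1 clade B AD8 Env; potency is for inhibitors of fusion seen as a drop in luminescence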
Leucine aminopeptidase = biological target: T4, Leucine aminopeptidase (Plasmodium falciparum 3D7, UniProt Q8IL11); test: P. falciparum M17LAP inhibitors, primary screen, biochemical, fluorogenic H-Leu-NHMec substrate, 1536-well (AID 1619); format: functional
T4 sequence (Q8IL11 whole entry): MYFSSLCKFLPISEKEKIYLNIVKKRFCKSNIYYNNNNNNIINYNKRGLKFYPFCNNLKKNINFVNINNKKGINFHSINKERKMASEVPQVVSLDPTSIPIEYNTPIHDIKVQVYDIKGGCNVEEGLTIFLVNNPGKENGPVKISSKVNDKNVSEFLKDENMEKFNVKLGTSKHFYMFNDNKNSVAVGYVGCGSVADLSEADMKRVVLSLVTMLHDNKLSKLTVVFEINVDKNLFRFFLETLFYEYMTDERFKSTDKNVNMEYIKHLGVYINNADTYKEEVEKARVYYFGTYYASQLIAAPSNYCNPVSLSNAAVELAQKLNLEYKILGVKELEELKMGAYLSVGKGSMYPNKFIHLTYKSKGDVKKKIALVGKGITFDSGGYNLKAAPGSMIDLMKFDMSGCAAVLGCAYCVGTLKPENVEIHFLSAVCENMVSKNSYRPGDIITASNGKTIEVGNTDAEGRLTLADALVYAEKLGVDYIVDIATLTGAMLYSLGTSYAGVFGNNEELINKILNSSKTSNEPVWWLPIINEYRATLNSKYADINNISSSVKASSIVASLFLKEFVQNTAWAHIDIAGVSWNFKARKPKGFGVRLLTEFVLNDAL

[11] = biological target: Luciferin 4-monooxygenase (Photinus pyralis, UniProt P08659); test: inhibition of purified Photinus pyralis luciferase – biochemical, luminescence, dose response (AID 1891)
Luciferin 4-monooxygenase, sequence (P08659 whole entry): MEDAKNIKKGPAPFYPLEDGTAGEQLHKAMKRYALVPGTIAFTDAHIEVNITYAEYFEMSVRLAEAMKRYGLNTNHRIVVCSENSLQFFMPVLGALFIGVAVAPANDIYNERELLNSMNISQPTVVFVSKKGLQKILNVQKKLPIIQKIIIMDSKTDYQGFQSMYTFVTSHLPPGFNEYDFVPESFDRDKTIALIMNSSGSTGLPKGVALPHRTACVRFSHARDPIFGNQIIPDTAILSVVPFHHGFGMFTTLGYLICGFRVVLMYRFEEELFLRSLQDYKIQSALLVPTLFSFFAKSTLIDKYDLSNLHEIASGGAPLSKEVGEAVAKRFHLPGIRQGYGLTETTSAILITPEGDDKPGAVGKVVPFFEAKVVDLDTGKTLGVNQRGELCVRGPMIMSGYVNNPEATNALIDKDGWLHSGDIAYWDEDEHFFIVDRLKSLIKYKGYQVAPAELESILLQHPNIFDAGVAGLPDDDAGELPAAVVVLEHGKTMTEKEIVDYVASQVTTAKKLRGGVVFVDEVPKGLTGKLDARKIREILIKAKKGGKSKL

[12] = Luminescence Cell-Based Dose Confirmation HTS to Identify Inhibitors of Platelet Dense Granule Release. [Related pubchem assays: 1663 (Primary HTS), 1678 (Summary of Project)]; format: functional
[13] = biological target: Voltage-dependent T-type calcium channel subunit alpha-1H (Homo sapiens, UniProt O95180); format: functional;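 further: channel activity triggered by adding a high calcium stimulation buffer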
Voltage-dependent T-type calcium channel subunit alpha-1H, sequence (O95180 whole entry): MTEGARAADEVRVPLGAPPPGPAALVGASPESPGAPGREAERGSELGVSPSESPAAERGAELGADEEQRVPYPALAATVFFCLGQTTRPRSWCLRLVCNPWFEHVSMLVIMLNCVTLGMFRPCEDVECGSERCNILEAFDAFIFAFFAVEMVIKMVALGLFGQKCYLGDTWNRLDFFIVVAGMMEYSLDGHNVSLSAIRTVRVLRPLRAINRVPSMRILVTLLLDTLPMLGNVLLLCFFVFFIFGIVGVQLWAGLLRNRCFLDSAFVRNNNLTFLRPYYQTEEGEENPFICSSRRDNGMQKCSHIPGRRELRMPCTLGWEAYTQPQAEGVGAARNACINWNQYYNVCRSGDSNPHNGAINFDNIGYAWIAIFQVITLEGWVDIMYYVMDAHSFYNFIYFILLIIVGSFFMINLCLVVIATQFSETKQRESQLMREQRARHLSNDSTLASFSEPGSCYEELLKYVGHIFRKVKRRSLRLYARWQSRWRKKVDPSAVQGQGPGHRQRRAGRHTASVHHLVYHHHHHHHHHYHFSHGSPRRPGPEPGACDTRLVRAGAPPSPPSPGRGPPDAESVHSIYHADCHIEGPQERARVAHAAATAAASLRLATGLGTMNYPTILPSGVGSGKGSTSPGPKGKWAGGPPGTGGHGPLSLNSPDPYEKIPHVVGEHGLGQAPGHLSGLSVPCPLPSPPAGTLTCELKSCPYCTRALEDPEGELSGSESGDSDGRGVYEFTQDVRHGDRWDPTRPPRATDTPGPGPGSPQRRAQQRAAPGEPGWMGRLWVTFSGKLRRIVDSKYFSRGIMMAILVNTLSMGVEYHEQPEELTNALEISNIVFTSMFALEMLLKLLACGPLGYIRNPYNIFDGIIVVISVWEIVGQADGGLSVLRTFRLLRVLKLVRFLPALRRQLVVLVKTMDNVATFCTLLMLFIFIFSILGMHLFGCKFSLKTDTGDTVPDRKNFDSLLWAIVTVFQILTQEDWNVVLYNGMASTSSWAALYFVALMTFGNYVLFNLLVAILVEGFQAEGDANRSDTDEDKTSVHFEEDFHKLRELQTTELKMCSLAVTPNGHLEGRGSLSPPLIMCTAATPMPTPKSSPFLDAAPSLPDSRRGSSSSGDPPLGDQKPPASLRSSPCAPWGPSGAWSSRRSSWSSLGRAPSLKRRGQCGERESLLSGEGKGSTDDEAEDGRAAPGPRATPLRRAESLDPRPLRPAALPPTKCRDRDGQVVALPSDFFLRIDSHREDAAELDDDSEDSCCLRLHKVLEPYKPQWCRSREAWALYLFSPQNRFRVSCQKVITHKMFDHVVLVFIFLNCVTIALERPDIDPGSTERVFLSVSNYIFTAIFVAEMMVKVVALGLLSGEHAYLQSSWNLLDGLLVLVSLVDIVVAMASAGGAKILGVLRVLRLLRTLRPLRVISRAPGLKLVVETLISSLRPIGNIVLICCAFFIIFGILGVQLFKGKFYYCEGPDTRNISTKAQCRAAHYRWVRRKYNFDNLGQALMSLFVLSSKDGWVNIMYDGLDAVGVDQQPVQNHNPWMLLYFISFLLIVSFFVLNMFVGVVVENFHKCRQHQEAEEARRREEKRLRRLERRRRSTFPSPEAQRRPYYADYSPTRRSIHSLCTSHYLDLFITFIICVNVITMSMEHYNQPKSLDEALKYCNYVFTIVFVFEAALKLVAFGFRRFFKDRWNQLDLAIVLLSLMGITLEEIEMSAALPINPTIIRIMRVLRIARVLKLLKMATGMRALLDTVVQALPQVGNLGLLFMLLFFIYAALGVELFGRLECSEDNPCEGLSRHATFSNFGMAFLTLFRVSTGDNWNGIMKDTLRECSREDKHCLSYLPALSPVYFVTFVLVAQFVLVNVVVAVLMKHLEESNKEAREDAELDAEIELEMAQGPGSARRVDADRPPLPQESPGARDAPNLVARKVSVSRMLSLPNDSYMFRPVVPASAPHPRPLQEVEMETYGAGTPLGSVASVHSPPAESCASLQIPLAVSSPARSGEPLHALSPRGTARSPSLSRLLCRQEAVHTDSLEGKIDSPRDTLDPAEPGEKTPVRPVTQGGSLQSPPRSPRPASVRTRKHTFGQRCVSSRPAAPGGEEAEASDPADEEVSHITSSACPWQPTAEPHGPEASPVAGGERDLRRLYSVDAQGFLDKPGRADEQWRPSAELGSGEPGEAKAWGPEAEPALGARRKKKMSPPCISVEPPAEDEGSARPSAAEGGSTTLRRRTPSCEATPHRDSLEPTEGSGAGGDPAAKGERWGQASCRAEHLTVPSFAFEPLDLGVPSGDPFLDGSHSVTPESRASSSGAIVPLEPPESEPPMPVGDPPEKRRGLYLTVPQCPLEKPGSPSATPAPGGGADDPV

cells = format: functional

CCC(C)(C)NC(=O)CN(Cc1ccc2c(c1)OCO2)C(=O)CCC(=O)Nc1nccs1
IC50 (Aminopeptidase N): 87.6 µM (active)

O=[N+]([O-])c1cncc([N+](=O)[O-])c1Nc1cccc(O)c1
CC50 [1]: 27 µM (active)
CC50 [2]: 15.7 µM (active)
EC50 (Protein RecA): 3.28 µM (active)

CCc1cc2cc(C(=O)Nc3ccc(F)cc3)sc2s1
EC50 [3]: > 79.4 µM (inactive)
EC50 [4]: > 79.4 µM (not active)
EC50 [5]: 57.1 µM (not active)

COc1ccc(C)c2sc(NC(=O)CCS(=O)(=O)c3ccccc3)nc12
CC50 [1]: 23.1 µM (active)
CC50 [2]: > 20 µM (active)

CCn1c(=O)cc(SCC(=O)N2CCN(c3ccccn3)CC2)c2ccccc21
EC50 [3]: > 79.4 µM (inactive)
EC50 [4]: > 79.4 µM (not active)
EC50 [5]: > 79.4 µM (not active)

CCn1cc(C(=O)NCc2ccc3c(c2)OCO3)c(=O)c2cc(S(=O)(=O)N3CCOCC3)ccc21
IC50 (Prothrombin): 0.158 µM (active)

O=C(CN1C(=O)C2CCCCN2C(=O)c2ccccc21)N1CCCc2ccccc21 (stereo not drawn)
IC50 (Aminopeptidase N): 103 µM (active)

Cc1ccc(Cn2c(SCCN3CCCCC3)nc3c2c(=O)n(C)c(=O)n3C)cc1
EC50 [6]: 11.9 µM (active)

Cc1ccccc1NC(=O)CCl
IC50 (Prothrombin): > 50 µM (not active)

CC(=O)Nc1sc2c(c1C(c1ccc(F)cc1)N1CCOCC1)CCCC2 (stereo not drawn)
AC50 [7]: 5.3 µM (active)
AC50 [8]: 11.6 µM (active)
AC50 [9]: > 70 µM (inactive)
AC50 [10]: 32.8 µM (active)

CCc1cc2cc3c(cc2nc1SCC(=O)Nc1cc(OC)c(OC)cc1C(=O)O)OCO3
IC50 (Leucine aminopeptidase): < 1 µM (active)
IC50 (Aminopeptidase N): 76 µM (active)

Oc1ccc(-c2nc3ccccc3s2)cc1
EC50 [11]: 1.26 µM (active)
EC50 [12]: 47.5 µM (active)
IC50 (Prothrombin): > 50 µM (not active)

Cc1cccc(N2CCN(C(=O)C(Cc3ccccc3)n3cccc3)CC2)c1C (stereo not drawn)
EC50 [13]: 8.08 µM (active)

Cn1c(N2CCNCC2)nc2ccccc21
EC50 [6]: 0.149 µM (active)

O=C(CNS(=O)(=O)c1ccc2ccccc2c1)NCCc1ccccn1
EC50 [6]: 9.44 µM (active)

COc1cc(NC(=O)C2COc3ccccc3O2)c(OC)cc1Cl (stereo not drawn)
EC50 [13]: 8.09 µM (active)

Cc1ccc(-c2ccc(/C=N/NC(=O)CN3CCOCC3)o2)cc1[N+](=O)[O-]
CC50 [1]: > 40 µM (active)
IC50 (cells): 22.5 µM (active)

O=C(Nc1ccccc1C(F)(F)F)c1ccc(CN2CCC(Cc3ccccc3)CC2)cc1
EC50 [13]: 0.227 µM (active)

COc1cc(OC)cc(C(=O)NC2CCCN(Cc3ccc(Cl)cc3)C2)c1 (stereo not drawn)
EC50 [6]: 5.96 µM (active)
